Laboratory results: publication PMC5079764 (Bioorganic & medicinal chemistry, 2016)
Blank lines part the entries; values can stand above or below the molecule they belong to.

How the values were obtained:
[1] = target: T1, D2 receptor (Homo sapiens, UniProt P14416); conditions: Table 1; cited from earlier work
[2] = target: T2, D4 receptor (Homo sapiens, UniProt P21917); conditions: Table 1; cited from earlier work
T2 sequence (P21917 1-419): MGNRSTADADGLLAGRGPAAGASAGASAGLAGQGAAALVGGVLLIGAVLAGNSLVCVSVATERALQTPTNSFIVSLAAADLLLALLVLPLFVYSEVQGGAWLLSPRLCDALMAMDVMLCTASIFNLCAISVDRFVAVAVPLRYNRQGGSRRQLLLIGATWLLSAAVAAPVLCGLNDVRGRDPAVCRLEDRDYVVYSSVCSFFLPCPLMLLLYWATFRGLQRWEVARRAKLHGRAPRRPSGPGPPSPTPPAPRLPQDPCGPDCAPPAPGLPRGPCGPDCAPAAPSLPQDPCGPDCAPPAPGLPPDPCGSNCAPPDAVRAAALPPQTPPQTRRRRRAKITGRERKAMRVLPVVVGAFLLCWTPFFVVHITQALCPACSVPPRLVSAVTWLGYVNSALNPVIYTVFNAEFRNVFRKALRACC

[3] = target: T3, 5-HT1A receptor (Homo sapiens, UniProt P08908); conditions: Table 1, cited from earlier work
T3 sequence (P08908 1-422): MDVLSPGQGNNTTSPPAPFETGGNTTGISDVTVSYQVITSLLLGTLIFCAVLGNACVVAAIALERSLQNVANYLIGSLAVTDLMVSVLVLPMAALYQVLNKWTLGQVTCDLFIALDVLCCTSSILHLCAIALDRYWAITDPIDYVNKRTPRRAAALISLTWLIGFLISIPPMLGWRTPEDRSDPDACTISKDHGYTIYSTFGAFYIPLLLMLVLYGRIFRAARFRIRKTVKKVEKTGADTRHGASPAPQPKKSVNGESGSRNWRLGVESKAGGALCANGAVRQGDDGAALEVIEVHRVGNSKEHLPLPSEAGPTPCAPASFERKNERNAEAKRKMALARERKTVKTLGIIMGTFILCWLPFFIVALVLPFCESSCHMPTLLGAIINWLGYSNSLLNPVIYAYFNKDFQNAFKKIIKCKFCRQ

[4] = target: 5-HT2A receptor (Homo sapiens, UniProt P28223); conditions: Table 1; cited from earlier work
Sequence of 5-HT2A receptor (P28223 whole entry): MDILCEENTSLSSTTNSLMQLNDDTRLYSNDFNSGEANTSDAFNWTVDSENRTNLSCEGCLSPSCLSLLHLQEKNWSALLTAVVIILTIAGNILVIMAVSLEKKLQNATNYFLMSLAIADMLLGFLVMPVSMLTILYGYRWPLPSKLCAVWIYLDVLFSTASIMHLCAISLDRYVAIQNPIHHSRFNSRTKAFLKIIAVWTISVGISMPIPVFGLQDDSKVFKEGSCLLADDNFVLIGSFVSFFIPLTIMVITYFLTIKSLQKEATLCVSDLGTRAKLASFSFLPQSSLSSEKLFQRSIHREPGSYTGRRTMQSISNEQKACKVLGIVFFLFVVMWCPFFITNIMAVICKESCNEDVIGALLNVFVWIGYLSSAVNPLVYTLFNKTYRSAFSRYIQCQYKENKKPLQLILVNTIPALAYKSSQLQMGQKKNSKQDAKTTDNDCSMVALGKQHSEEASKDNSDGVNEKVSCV

[5] = target: 5-HT7 receptor (Homo sapiens, UniProt P34969); conditions: Table 1; cited from earlier work
Sequence of 5-HT7 receptor (P34969 whole entry): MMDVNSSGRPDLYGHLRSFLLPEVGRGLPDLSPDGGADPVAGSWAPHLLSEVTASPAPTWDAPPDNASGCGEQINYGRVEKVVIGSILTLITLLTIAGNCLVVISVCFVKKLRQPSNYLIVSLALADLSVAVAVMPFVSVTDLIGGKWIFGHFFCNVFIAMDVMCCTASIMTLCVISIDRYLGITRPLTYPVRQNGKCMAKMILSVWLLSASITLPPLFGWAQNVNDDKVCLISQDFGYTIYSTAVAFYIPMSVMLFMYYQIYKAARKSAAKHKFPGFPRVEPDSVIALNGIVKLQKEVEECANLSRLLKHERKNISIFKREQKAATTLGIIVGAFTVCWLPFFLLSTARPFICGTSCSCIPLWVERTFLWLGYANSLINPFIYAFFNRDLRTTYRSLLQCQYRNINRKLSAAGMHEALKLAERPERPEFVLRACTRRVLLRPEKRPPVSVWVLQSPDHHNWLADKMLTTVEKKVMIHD

[6] = target: T4, 5-HT2B receptor (Homo sapiens, UniProt P41595); conditions: Table 1; cited from earlier work
T4 sequence (P41595 whole entry): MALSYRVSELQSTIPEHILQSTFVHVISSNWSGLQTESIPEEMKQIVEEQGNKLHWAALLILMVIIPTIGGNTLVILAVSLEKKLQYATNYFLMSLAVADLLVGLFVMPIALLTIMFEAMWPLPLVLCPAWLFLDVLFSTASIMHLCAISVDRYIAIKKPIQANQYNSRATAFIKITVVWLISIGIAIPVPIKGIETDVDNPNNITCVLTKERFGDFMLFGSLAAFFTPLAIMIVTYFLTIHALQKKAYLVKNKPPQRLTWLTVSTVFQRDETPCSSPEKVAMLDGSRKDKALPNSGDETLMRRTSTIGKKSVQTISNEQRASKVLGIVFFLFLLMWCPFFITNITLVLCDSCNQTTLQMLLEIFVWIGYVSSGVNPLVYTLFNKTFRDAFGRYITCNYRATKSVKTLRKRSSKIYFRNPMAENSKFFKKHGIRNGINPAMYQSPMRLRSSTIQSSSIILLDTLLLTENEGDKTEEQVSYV

[7] = target: T5, 5-HT2C receptor (Homo sapiens, UniProt P28335); conditions: Table 1; cited from earlier work
T5 sequence (P28335 33-458): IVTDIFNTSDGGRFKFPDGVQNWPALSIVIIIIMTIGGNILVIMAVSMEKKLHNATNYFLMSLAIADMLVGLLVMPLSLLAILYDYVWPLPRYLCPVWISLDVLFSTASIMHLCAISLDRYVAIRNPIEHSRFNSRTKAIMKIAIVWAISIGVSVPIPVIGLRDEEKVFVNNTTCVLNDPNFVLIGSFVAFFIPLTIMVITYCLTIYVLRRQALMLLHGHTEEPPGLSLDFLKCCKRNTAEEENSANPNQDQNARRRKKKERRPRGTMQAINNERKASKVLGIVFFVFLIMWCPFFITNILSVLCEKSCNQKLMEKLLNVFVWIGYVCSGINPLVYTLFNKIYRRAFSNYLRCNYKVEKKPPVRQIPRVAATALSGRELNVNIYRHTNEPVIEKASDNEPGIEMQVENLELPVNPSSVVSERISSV

[8] = target: H1 receptor (Homo sapiens, UniProt P35367); conditions: Table 1; cited from earlier work
Sequence of H1 receptor (P35367 whole entry): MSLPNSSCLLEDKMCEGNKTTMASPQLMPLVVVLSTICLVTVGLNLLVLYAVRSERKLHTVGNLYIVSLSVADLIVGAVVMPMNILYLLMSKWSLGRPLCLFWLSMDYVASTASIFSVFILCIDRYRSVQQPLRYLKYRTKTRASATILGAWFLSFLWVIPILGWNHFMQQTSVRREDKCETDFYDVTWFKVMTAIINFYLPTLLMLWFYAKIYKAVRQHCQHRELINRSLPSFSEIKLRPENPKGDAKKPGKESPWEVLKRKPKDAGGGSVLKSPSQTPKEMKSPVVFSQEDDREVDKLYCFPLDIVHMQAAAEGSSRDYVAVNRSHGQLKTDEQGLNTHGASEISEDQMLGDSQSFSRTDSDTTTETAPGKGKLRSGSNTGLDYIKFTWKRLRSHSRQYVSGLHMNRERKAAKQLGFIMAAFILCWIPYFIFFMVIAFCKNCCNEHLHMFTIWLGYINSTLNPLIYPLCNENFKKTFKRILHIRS

[9] = target: T4, 5-HT2B receptor; experiment: NIMH-PDSP receptor binding affinity, 5-HT2B; conditions: Table 1; MTA = Missed 50% of threshold inhibition
[10] = target: T1, D2 receptor; experiment: NIMH-PDSP receptor binding affinity, D2; conditions: Table 1; MTA = Missed 50% of threshold inhibition

T1 sequence (P14416 whole entry): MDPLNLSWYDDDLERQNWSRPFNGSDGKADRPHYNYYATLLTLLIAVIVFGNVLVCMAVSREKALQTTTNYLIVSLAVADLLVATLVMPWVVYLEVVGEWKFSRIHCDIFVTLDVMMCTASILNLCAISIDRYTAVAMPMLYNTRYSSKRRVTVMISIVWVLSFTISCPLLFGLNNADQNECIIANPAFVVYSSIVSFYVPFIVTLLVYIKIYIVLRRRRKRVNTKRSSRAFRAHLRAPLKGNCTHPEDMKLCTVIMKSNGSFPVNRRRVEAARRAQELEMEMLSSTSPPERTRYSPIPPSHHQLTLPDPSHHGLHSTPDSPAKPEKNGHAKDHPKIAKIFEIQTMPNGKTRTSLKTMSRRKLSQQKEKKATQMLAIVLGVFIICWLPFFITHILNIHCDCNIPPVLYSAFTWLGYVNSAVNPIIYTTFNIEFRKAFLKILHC

SMILES: c1ccc2c(c1)CCN(CCCCc1nc3ccccc3s1)C2 [Compound 1a, 2-(4-(3,4-Dihydroisoquinolin-2(1H)-yl)butyl)benzo[d]thiazole]
pKi±SEM D2 [1]: 6.78±0.09 | pKi±SEM D4 [2]: 7.17±0.05 | pKi±SEM 5-HT1A [3]: 8±0.03 | Ki ([3]; read-out: Ki (nM) 5-HT1A, MTA = Missed 50% of threshold inhibition): 10 nM | pKi±SEM 5-HT2A [4]: 5.77±0.06 | pKi±SEM 5-HT7 [5]: 7.66±0.06 | pKi±SEM 5-HT2B [6]: 7.74±0.05 | pKi±SEM 5-HT2C [7]: 6.04±0.04 | pKi±SEM H1 [8]: 6.23±0.08

Ki (nM) 5-HT2B [9]: MTA
SMILES: Cl.Cl.c1ccc2c(c1)CCN(CCCc1nc3ccccc3[nH]1)C2 [Compound 1d, 2-(3-(1H-benzo[d]imidazol-2-yl)propyl)-1,2,3,4-tetrahydroisoquinoline]

Ki (nM) D2 [10]: MTA
SMILES: Br.c1ccc2c(c1)CCN(CCCc1nc3ccccc3s1)C2 [Compound 1b, 2-(3-(3,4-Dihydroisoquinolin-2(1H)-yl)propyl)benzo[d]thiazole hydrobromide]
